Measurements as given in the NIST ThermoML archive (doi:10.1016/j.jct.2019.04.010).

Assay: xn = mol fraction of the nth substance listed
Conditions: 100 kPa, Liquid; for viscosity: Concentric cylinders viscometry; for mass density: Vibrating tube method

CCCCn1cc[n+](C)c1.O=[N+]([O-])[O-] [1-butyl-3-methylimidazolium nitrate] + CC(C)O
Conditions	mass density [kg/m3]	viscosity [mPa·s]
293.15 K, x1 = 0.0815	853.9	4.18
293.15 K, x1 = 0.1596	906.3	6.88
293.15 K, x1 = 0.2405	951.1	10.99
293.15 K, x1 = 0.3495	1000.3	18
293.15 K, x1 = 0.4405	1034	26
293.15 K, x1 = 0.5607	1070.7	39.8
293.15 K, x1 = 0.6506	1093.8	53.28
293.15 K, x1 = 0.7413	1114.1	69.94
293.15 K, x1 = 0.8515	1135	105.6
293.15 K, x1 = 0.9396	1149.7	157.7
293.15 K, x1 = 1	1158.3	223.54
298.15 K, x1 = 0.0815	849.9	3.66
298.15 K, x1 = 0.1596	902.5	5.95
298.15 K, x1 = 0.2405	947.4	9.26
298.15 K, x1 = 0.3495	996.7	15.42
298.15 K, x1 = 0.4405	1030.5	22
298.15 K, x1 = 0.5607	1067.4	33.04
298.15 K, x1 = 0.6506	1090.6	42.9
298.15 K, x1 = 0.7413	1110.9	55.5
298.15 K, x1 = 0.8515	1131.9	81.6
298.15 K, x1 = 0.9396	1146.6	122.4
298.15 K, x1 = 1	1155.2	168.97
303.15 K, x1 = 0.0815	846	3.29
303.15 K, x1 = 0.1596	898.7	5.22
303.15 K, x1 = 0.2405	943.8	8
303.15 K, x1 = 0.3495	993.2	12.83
303.15 K, x1 = 0.4405	1027.2	17.76
303.15 K, x1 = 0.5607	1064.2	26.4
303.15 K, x1 = 0.6506	1087.4	34.49
303.15 K, x1 = 0.7413	1107.9	45.29
303.15 K, x1 = 0.8515	1129	63.3
303.15 K, x1 = 0.9396	1143.6	90.3
303.15 K, x1 = 1	1152.3	125.36
308.15 K, x1 = 0.0815	841.9	2.93
308.15 K, x1 = 0.1596	894.8	4.55
308.15 K, x1 = 0.2405	940.1	6.55
308.15 K, x1 = 0.3495	989.6	10.13
308.15 K, x1 = 0.4405	1023.7	14.06
308.15 K, x1 = 0.5607	1060.8	20.79
308.15 K, x1 = 0.6506	1084.2	27.05
308.15 K, x1 = 0.7413	1104.7	36.2
308.15 K, x1 = 0.8515	1126	50.5
308.15 K, x1 = 0.9396	1140.6	72.4
308.15 K, x1 = 1	1149.3	96.74
313.15 K, x1 = 0.0815	837.9	2.53
313.15 K, x1 = 0.1596	891.1	3.95
313.15 K, x1 = 0.2405	936.5	5.7
313.15 K, x1 = 0.3495	986.4	8.96
313.15 K, x1 = 0.4405	1020.6	12.29
313.15 K, x1 = 0.5607	1057.8	17.93
313.15 K, x1 = 0.6506	1081.3	23.42
313.15 K, x1 = 0.7413	1101.7	30.6
313.15 K, x1 = 0.8515	1123.2	42.3
313.15 K, x1 = 0.9396	1137.8	58.7
313.15 K, x1 = 1	1146.5	75.12
318.15 K, x1 = 0.0815	833.7	2.25
318.15 K, x1 = 0.1596	887.1	3.53
318.15 K, x1 = 0.2405	932.8	5.15
318.15 K, x1 = 0.3495	982.9	7.91
318.15 K, x1 = 0.4405	1017.3	10.89
318.15 K, x1 = 0.5607	1054.7	15.75
318.15 K, x1 = 0.6506	1078.3	20.46
318.15 K, x1 = 0.7413	1098.9	26.05
318.15 K, x1 = 0.8515	1120.5	35.1
318.15 K, x1 = 0.9396	1135	45.9
318.15 K, x1 = 1	1143.8	56.28
323.15 K, x1 = 0.0815	829.5	2
323.15 K, x1 = 0.1596	883.3	3.09
323.15 K, x1 = 0.2405	929.2	4.61
323.15 K, x1 = 0.3495	979.5	7.17
323.15 K, x1 = 0.4405	1014.1	9.8
323.15 K, x1 = 0.5607	1051.7	14.17
323.15 K, x1 = 0.6506	1075.4	18.14
323.15 K, x1 = 0.7413	1096.1	23.09
323.15 K, x1 = 0.8515	1117.8	30.31
323.15 K, x1 = 0.9396	1132.5	37.81
323.15 K, x1 = 1	1141.2	45.17
